Measured values reported in patent US20070021434A1, “NON-NUCLEOSIDE ANTI-HEPACIVIRUS AGENTS AND USES THEREOF” (Migenix Inc., priority 2005, published 2007).
pIC50: −log10 of the molar value. Peptide text beside a SMILES is read from it. * marks the point of attachment. Fmoc = O=C(OCC1c2ccccc2-c2ccccc21)*; Boc = CC(C)(C)OC(=O)*

Molecular target: HCV RdRp (NS5B) (UniProt P26663)
Type: biochemical, hepatitis C virus

Sequence of HCV RdRp (NS5B) (P26663 whole entry, looked up): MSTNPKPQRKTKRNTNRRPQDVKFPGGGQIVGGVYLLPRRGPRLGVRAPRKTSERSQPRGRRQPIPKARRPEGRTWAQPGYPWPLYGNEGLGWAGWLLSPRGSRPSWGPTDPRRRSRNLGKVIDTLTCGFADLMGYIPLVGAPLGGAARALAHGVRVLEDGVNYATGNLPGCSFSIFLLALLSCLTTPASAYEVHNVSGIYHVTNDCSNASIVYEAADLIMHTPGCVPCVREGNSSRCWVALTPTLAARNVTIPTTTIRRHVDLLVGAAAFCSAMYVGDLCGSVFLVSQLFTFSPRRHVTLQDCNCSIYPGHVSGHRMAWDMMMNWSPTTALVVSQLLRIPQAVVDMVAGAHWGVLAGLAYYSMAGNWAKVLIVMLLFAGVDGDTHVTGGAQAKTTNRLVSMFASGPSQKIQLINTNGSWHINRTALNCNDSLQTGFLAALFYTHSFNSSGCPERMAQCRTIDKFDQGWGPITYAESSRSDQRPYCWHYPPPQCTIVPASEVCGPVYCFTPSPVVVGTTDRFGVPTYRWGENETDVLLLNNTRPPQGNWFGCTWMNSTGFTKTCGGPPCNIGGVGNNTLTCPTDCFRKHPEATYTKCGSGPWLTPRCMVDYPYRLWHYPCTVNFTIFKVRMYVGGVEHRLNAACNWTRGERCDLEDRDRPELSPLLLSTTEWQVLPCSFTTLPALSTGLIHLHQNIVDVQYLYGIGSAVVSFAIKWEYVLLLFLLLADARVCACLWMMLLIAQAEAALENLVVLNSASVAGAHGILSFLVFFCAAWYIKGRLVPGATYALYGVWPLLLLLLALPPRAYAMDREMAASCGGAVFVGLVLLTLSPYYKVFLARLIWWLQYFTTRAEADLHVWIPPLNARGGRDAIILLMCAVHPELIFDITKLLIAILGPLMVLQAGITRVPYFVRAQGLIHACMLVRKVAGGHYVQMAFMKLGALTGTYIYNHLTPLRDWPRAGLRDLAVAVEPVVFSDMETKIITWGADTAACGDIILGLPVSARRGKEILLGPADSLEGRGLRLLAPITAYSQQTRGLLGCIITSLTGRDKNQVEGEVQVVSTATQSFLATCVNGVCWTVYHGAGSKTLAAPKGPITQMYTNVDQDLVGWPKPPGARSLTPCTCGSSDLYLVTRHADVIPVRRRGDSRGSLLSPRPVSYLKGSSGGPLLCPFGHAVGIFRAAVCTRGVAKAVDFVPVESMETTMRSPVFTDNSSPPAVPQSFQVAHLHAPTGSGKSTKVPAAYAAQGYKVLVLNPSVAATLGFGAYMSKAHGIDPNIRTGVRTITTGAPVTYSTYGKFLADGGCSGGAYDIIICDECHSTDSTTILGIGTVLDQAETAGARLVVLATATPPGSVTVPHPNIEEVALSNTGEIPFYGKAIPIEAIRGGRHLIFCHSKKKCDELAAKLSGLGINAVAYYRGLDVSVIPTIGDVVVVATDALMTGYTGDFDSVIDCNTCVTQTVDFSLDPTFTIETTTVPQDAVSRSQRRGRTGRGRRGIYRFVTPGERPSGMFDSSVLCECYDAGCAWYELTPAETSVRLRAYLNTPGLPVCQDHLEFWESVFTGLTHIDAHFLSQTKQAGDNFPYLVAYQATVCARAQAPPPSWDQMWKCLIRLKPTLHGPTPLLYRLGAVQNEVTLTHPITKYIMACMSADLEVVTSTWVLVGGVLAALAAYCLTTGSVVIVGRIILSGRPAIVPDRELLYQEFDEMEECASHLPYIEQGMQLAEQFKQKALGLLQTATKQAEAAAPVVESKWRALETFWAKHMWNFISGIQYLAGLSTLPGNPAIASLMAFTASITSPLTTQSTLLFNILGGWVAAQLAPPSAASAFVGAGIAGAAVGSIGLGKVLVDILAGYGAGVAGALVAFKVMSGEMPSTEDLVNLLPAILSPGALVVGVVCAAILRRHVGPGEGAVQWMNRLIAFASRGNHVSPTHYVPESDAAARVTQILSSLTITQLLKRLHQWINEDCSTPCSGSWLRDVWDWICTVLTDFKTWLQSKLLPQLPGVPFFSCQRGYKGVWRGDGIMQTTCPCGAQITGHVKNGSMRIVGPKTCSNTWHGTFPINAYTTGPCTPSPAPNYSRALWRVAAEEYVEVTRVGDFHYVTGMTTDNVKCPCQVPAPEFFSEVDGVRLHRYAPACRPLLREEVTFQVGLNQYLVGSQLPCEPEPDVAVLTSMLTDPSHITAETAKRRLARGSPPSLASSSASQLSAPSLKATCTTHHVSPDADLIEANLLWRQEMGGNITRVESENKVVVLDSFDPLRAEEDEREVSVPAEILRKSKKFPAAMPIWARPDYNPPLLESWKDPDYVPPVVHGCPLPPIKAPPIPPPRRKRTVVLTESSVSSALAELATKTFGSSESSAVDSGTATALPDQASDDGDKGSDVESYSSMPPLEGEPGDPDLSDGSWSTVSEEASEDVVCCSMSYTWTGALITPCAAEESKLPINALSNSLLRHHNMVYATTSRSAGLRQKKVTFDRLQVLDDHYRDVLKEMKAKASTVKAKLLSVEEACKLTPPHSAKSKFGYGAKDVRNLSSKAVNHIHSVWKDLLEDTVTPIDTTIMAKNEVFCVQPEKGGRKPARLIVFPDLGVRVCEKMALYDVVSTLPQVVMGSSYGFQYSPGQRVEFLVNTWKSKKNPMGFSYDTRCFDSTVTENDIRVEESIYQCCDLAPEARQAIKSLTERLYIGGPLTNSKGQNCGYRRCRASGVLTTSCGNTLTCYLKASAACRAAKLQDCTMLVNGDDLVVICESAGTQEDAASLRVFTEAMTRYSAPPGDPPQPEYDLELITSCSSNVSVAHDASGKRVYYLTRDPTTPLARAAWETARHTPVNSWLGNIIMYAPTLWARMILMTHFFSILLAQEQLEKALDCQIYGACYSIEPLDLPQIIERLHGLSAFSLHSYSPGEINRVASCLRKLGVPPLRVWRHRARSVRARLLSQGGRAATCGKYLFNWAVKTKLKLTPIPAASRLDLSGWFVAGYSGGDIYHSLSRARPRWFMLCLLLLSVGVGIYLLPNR

| SMILES | pIC50 |
| --- | --- |
| CC(C)(C)c1ccc(NC(=O)[C@H](CCCCN)NC(=O)OCC2c3ccccc3-c3ccccc32)cc1 [Compound 105, (S)-[5-AMINO-1-(4-TERT-BUTYL-PHENYLCARBAMOYL)-PENTYL]-CARBAMIC ACID 9H-FLUOREN-9-YLMETHYL ESTER] | 4.30 to 5.00 |
| NCCCC[C@@H](NC(=O)NCc1ccccc1)C(=O)Nc1ccc(C2CCCCC2)cc1 [Compound 141, (R)-6-AMINO-2-(3-BENZYL-UREIDO)-HEXANOIC ACID (4-CYCLOHEXYL-PHENYL)-AMIDE] | > 5.00 |
| NCCCC[C@H](NC(=O)OCC1c2ccccc2-c2ccccc21)C(=O)Nc1ccncc1 [Compound 232, (S)-[5-AMINO-1-(PYRIDIN-4-YLCARBAMOYL)-PENTYL]-CARBAMIC ACID 9H-FLUOREN-9-YLMETHYL ESTER] | < 4.30 |
| COC(=O)[C@H](Cc1c[nH]c2ccccc12)NC(=O)[C@H](CCCCNC(=O)OC(C)(C)C)NC(=O)OCC1c2ccccc2-c2ccccc21 [Compound 30, (S)-2-[6-TERT-BUTOXYCARBONYLAMINO-2-(S)-((9H-FLUOREN-9-YLMETHOXYCARBONYL)AMINO)-HEXANOYL-AMINO]-3-(1H-INDOL-3-YL)-PROPIONIC ACID METHYL ESTER] (Fmoc-Lys(Boc)-Trp-OMe) | < 4.30 |
| O=C(CC1CNCCN1C(=O)NCc1ccccc1)Nc1ccc(C2CCCCC2)cc1 (stereo not shown) [Compound 158, 2-[(4-CYCLOHEXYL-PHENYLCARBAMOYL)-METHYL]-PIPERAZINE-1-CARBOXYLIC ACID BENZYLAMIDE] | 4.30 to 5.00 |
| NCCCC[C@H](NC(=O)Nc1ccc(OCc2ccccc2)cc1)C(=O)NC1CCCC1 [Compound 255, (S)-6-AMINO-2-[3-(4-BENZYLOXY-PHENYL)-UREIDO]-HEXANOIC ACID CYCLOPENTYLAMIDE] | 4.30 to 5.00 |
| Cc1ccc(NC(=O)C(CCCCN)NC(=O)COc2ccc(-c3ccccc3)cc2)cc1 [Compound 326, (S)-6-AMINO-2-[2-(BIPHENYL-4-YLOXY)-ACETYLAMINO]-HEXANOIC ACID P-TOLYLAMIDE] | < 4.30 |
| Cc1ccc(NC(=O)C(CCCNC(=O)C2CCCN2)NC(=O)OCC2c3ccccc3-c3ccccc32)cc1 [Compound 220, (S)-{4-[R-(PYRROLIDINE-2-CARBONYL)-AMINO]-1-P-TOLYLCARBAMOYL-BUTYL}-CARBAMIC ACID 9H-FLUOREN-9-YLMETHYL ESTER] | < 4.30 |
| COc1ccc(CNC(=O)N[C@@H](CCCCN)C(=O)Nc2ccc(C)cc2)cc1 [Compound 139, (S)-6-AMINO-2-[3-(4-METHOXY-BENZYL)-UREIDO]-HEXANOIC ACID P-TOLYLAMIDE] | < 4.30 |
| NCCCC[C@@H](NC(=O)Nc1cccc2ccccc12)C(=O)Nc1ccc(CN(C(=O)c2ccco2)C2CCCCC2)cc1 [Compound 32, (R)-FURAN-2-CARBOXYLIC ACID {4-[6-AMINO-2-(3-NAPHTHALEN-1-YL-UREIDO)-HEXANOYLAMINO]-BENZYL}-CYCLOHEXYL-AMIDE] | < 4.30 |
| Cc1ccc(NC(=O)C(CCCCN)NC(=O)OCc2ccccc2)cc1 [Compound 403, (S)-(5-AMINO-1-P-TOLYLCARBAMOYL-PENTYL)-CARBAMIC ACID BENZYL ESTER] | < 4.30 |
| Cc1ccc(NC(=O)C(CCCCN)NC(=O)NCCc2ccc(-c3ccccc3)cc2)cc1 [Compound 76, (S)-6-AMINO-2-[3-(2-BIPHENYL-4-YL-ETHYL)-UREIDO]-HEXANOIC ACID P-TOLYLAMIDE] | 4.30 to 5.00 |
| Cc1ccc(NC(=O)C2(NC(=O)OCC3c4ccccc4-c4ccccc43)CCNCC2)cc1 [Compound 138, (4-P-TOLYLCARBAMOYL-PIPERIDIN-4-YL)-CARBAMIC ACID 9H-FLUOREN-9-YLMETHYL ESTER] | < 4.30 |
| Cc1cc(NC(=O)[C@H](CCCCN)NC(=O)Nc2ccc(OCc3ccccc3)cc2)n(-c2ccccc2)n1 [Compound 316, (S)-6-AMINO-2-[3-(4-BENZYLOXY-PHENYL)-UREIDO]-HEXANOIC ACID (5-METHYL-2-PHENYL-2H-PYRAZOL-3-YL)-AMIDE] | 4.30 to 5.00 |
| Cc1ccc(NC(=O)[C@H](CCCCN)NC(=O)Nc2ccc(OCc3ccccc3)c(Cl)c2)cc1 [Compound 253, (S)-6-AMINO-2-[3-(4-BENZYLOXY-3-CHLORO-PHENYL)-UREIDO]-HEXANOIC ACID P-TOLYLAMIDE] | 4.30 to 5.00 |
| COc1ccc(C=Cc2ccc(NC(=O)N[C@@H](CCCCN)C(=O)Nc3ccc(C)cc3)cc2)cc1 [Compound 252, (S)-6-AMINO-2-(3-{4-[2-(4-METHOXY-PHENYL)-VINYL]-PHENYL}-UREIDO)-HEXANOIC ACID P-TOLYLAMIDE] | > 5.00 |
| NCCCCC(NC(=O)OCC1c2ccccc2-c2ccccc21)C(=O)Nc1ccccc1 (stereo in doubt) [Compound 19, (S)-(5-AMINO-1-PHENYLCARBAMOYL-PENTYL)-CARBAMIC ACID 9H-FLUOREN-9-YLMETHYL ESTER] | < 4.30 |
| COc1ccc2cc(C(=O)NC(CCCCN)C(=O)Nc3ccc(C)cc3)ccc2c1 [Compound 66, (S)-6-METHOXY-NAPHTHALENE-2-CARBOXYLIC ACID (5-AMINO-1-P-TOLYLCARBAMOYL-PENTYL)-AMIDE] | < 4.30 |
| Cc1ccc(NC(=O)[C@H](CCCCN)NC(=O)Nc2ccc3c(c2)OCCO3)cc1 [Compound 213, (S)-6-AMINO-2-[3-(2,3-DIHYDRO-BENZO[1,4]DIOXIN-6-YL)-UREIDO]-HEXANOIC ACID P-TOLYLAMIDE] | < 4.30 |

| SMILES | pIC50 |
| --- | --- |
| Cc1ccc(NC(=O)C(CCCCCN)NC(=O)OCC2c3ccccc3-c3ccccc32)cc1 [Compound 104, (S)-(6-AMINO-1-P-TOLYLCARBAMOYL-HEXYL)-CARBAMIC ACID 9H-FLUOREN-9-YLMETHYL ESTER] | > 5.00 |
| Cc1ccc(NC(=O)C(CCCCN)NC(=O)C(N)Cc2c[nH]c3ccccc23)cc1 [Compound 100, (S,S)-6-AMINO-2-[2-AMINO-3-(1H-INDOL-3-YL)-PROPIONYLAMINO]-HEXANOIC ACID P-TOLYLAMIDE] | < 4.30 |
| Cc1ccc(NC(=O)C(CCCCN)NC(=O)CNc2ccc(C(F)(F)F)cc2)cc1 [Compound 365, (S)-6-AMINO-2-[2-(4-TRIFLUOROMETHYL-PHENYLAMINO)-ACETYLAMINO]-HEXANOIC ACID P-TOLYLAMIDE] | < 4.30 |
| NCCCC[C@H](NC(=O)OCC1c2ccccc2-c2ccccc21)C(=O)Nc1ccc(C2CCCCC2)cc1 [Compound 107, (S)-[5-AMINO-1-(4-CYCLOHEXYL-PHENYLCARBAMOYL)-PENTYL]-CARBAMIC ACID 9H-FLUOREN-9-YLMETHYL ESTER] | > 5.00 |
| Cc1ccc(NC(=O)[C@H](CCCCN)NC(=O)Nc2ccc(OCc3ccccn3)cc2)cc1 [Compound 299, (S)-6-AMINO-2-{3-[4-(PYRIDIN-2-YLMETHOXY)-PHENYL]-UREIDO}-HEXANOIC ACID P-TOLYLAMIDE] | 4.30 to 5.00 |
| Cc1ccc(NC(=O)C(CCCCN)NC(=O)C(N)Cc2cccc3ccccc23)cc1 [Compound 77, (S)-6-AMINO-2-(2-(S)-AMINO-3-NAPHTHALEN-1-YL-PROPIONYLAMINO)-HEXANOIC ACID P-TOLYLAMIDE] | < 4.30 |
| NCCCCC[C@H](NC(=O)OCC1c2ccccc2-c2ccccc21)C(=O)Nc1ccc(C2CCCCC2)cc1 [Compound 116, (S)-[6-AMINO-1-(4-CYCLOHEXYL-PHENYLCARBAMOYL)-HEXYL]-CARBAMIC ACID 9H-FLUOREN-9-YLMETHYL ESTER] | > 5.00 |
| Cc1ccc(NC(=O)C(CN)NC(=O)OCC2c3ccccc3-c3ccccc32)cc1 [Compound 103, (S)-(2-AMINO-1-P-TOLYLCARBAMOYL-ETHYL)-CARBAMIC ACID 9H-FLUOREN-9-YLMETHYL ESTER] | < 4.30 |
| Cc1ccc(NC(=O)[C@@H](CCCCN)NC(=O)NCc2ccc(Cl)c(Cl)c2)cc1 [Compound 170, (R)-6-AMINO-2-[3-(3,4-DICHLORO-BENZYL)-UREIDO]-HEXANOIC ACID P-TOLYLAMIDE] | < 4.30 |
| NCCCC[C@H](NC(=O)OCC1c2ccccc2-c2ccccc21)C(=O)NCCc1c[nH]c2ccccc12 [Compound 57, (S)-{5-AMINO-1-[2-(1H-INDOL-3-YL)-ETHYLCARBAMOYL]-PENTYL}-CARBAMIC ACID 9H-FLUOREN-9-YLMETHYL ESTER] | < 4.30 |
| Cc1ccc(NC(=O)C(CCCCN)NC(=O)CNc2cccc(C(F)(F)F)c2)cc1 [Compound 364, (S)-6-AMINO-2-[2-(3-TRIFLUOROMETHYL-PHENYLAMINO)-ACETYLAMINO]-HEXANOIC ACID P-TOLYLAMIDE] | < 4.30 |
| C[C@@H](N)C(=O)Nc1ccc(CN(C(=O)c2ccco2)C2CCCCC2)cc1 [Compound 13, (R)-FURAN-2-CARBOXYLIC ACID [4-(2-AMINO-PROPIONYLAMINO)-BENZYL]-CYCLOHEXYL-AMIDE] | < 4.30 |
| Cc1ccc(NC(=O)[C@H](CCCCN)NC(=O)CNCc2cccc(Cl)c2)cc1 [Compound 348, (S)-6-AMINO-2-[2-(3-CHLORO-BENZYLAMINO)-ACETYLAMINO]-HEXANOIC ACID P-TOLYLAMIDE] | < 4.30 |
| NCCCCC(NC(=O)Cc1cccc2ccccc12)C(=O)Nc1ccc(CN(C(=O)c2ccco2)C2CCCCC2)cc1 (stereo in doubt) [Compound 25, (S)-FURAN-2-CARBOXYLIC ACID {4-[6-AMINO-2-(2-NAPHTHALEN-1-YL-ACETYLAMINO)-HEXANOYLAMINO]-BENZYL}-CYCLOHEXYL-AMIDE] | 4.30 to 5.00 |
| Cc1ccc(NC(=O)C(NC(=O)OCC2c3ccccc3-c3ccccc32)C(C)O)cc1 [Compound 377, (2+/−,3R)-(2-HYDROXY-1-P-TOLYLCARBAMOYL-PROPYL)-CARBAMIC ACID 9H-FLUOREN-9-YLMETHYL ESTER] | < 4.30 |
| NCCCC[C@H](NC(=O)Cn1cnc2c(NC(=O)c3ccccc3)ncnc21)C(=O)Nc1ccc(CN(C(=O)c2ccco2)C2CCCCC2)cc1 [Compound 46, (S)-FURAN-2-CARBOXYLIC ACID (4-{6-AMINO-2-[2-(6-BENZOYLAMINO-PURIN-9-YL)-ACETYLAMINO]-HEXANOYLAMINO}-BENZYL)-CYCLOHEXYL-AMIDE] | 4.30 to 5.00 |
| Cc1ccc(NC(=O)C(CCNC(=O)CCN)NC(=O)OCC2c3ccccc3-c3ccccc32)cc1 [Compound 179, (S)-[3-(3-AMINO-PROPIONYLAMINO)-1-P-TOLYLCARBAMOYL-PROPYL]-CARBAMIC ACID 9H-FLUOREN-9-YLMETHYL ESTER] | 4.30 to 5.00 |
| Cc1ccc(NC(=O)[C@H](CCCCN)NC(=O)CNCc2ccccc2Cl)cc1 [Compound 347, (S)-6-AMINO-2-[2-(2-CHLORO-BENZYLAMINO)-ACETYLAMINO]-HEXANOIC ACID P-TOLYLAMIDE] | < 4.30 |
